The text below walks through data of ChEMBL document CHEMBL6121046, “Discovery of Novel Hydrazide-Based HDAC3 Inhibitors as Epigenetic Immunomodulators for Cancer Immunotherapy” (J Med Chem, 2025).

Assay [1] relates to B16-F10. As to the kind of experiment: Antiproliferative activity against mouse B16-F10 cells at 1 uM measured after 48 hrs incubation by MTT assay relative to control. In general terms: Tetrazolium dyes change colour on reduction, which living cells bring about.
Assay [2] addresses Histone deacetylase 3 (Homo sapiens, UniProt O15379). As to the kind of experiment: Inhibition of human recombinant HDAC3 pre-incubated with compounds for 10 mins measured followed by 60 mins of substrate addition.

Histone deacetylase 3, sequence (O15379 whole entry): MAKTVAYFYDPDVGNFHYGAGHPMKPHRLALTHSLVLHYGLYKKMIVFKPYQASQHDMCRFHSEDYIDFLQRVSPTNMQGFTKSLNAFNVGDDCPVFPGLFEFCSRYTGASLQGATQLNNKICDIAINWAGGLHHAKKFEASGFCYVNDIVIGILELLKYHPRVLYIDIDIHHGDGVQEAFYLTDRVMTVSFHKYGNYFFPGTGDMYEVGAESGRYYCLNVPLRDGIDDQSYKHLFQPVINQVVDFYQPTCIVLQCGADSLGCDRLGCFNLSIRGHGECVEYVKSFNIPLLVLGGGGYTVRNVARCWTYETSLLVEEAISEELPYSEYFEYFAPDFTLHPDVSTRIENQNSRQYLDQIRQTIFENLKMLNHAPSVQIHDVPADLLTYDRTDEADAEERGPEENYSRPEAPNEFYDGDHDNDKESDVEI

As to `CCCNNC(=O)c1ccc(CNC(=O)c2cnc(-c3ccc4[nH]ccc4c3)[nH]2)cc1`, in assay [1], the Activity is listed as 2.77%. In the case of `Nc1ccccc1NC(=O)c1ccc(CNC(=O)c2cnc(-c3ccc(F)cc3)[nH]2)cc1`, the Activity in assay [1] was 9.98%. For `COc1ccc(-c2ncc(C(=O)NCCCCCCC(=O)NO)s2)c(OC)c1`, the IC50 – broadly, the point on the concentration scale where inhibition reaches its midpoint – in assay [2] worked out at 31 nM.
